According to patent publication US20030013660A1, “Dioxolane analogs for improved inter-cellular delivery” (Shire BioChem Inc., priority 2000, published 2003):
Several values for one entry are separate records, joined by “and”; a condition that tells them apart may be missing. Equal values may be shown once.

How the values were obtained:
H-460 [1] = experiment: MTT assay at 72 hr (24 hr drug exposure, wash, 48 hr); type: cell-based; settings: Homo sapiens, NCI-H460, read-out: IC50 H-460 24 h, MTT at 72 hr, 24 h exposure, single experiment
Experimental: (§1) Exposition of 24hr to drug, washed, and incubated for another 48hr (total of 72hr assay)

MCF-7 [2] = experiment: as above; type: cell-based
Experimental: as §1

SF-268 [3] = experiment: as above; type: cell-based
Experimental: as §1

CCRF-CEM [4] = experiment: MTT or WST-1 assay at 72 hr (24 hr drug exposure, wash, 48 hr); type: cell-based
Experimental: as §1

CEM/dCK- [5] = experiment: as above; type: cell-based
Experimental: as §1

H-460 [6] = experiment: 3H-TdR incorporation at 72 hr (24 hr drug exposure, wash, 48 hr); type: cell-based, Human; settings: Homo sapiens, NCI-H460, read-out: IC50 in μM (3H-TdR incorporation at 72 hr) H-460 24 h, H-460 Human Lung Carcinoma, 72 hr assay
Experimental: (§2) Exposition of 24 hr to drug, wash, incubated for another 48 hr (total of 72 hr assay)
(§3) (3H-Thymidine Incorporation Assay)

MCF-7 [7] = experiment: as above; type: cell-based, Human; settings: Homo sapiens, MCF7, read-out: IC50 in μM (3H-TdR incorporation at 72 hr) MCF-7 24 h, MCF-7 Human Breast Carcinoma, 72 hr assay
Experimental: as §2, §3

SF-268 [8] = experiment: as above; type: cell-based, Human; settings: Homo sapiens, SF-268, read-out: IC50 in μM (3H-TdR incorporation at 72 hr) SF-268 24 h, SF-268 Human Central Nervous System Tumor; 24 h drug exposure, 72 hr assay
Experimental: as §2, §3

CCRF-CEM [9] = experiment: as above; type: cell-based; settings: read-out: IC50 in μM (3H-TdR incorporation at 72 hr) CCRF-CEM 24 h, CCRF-CEM T-cell Leukemia, 72 hr assay
Experimental: as §2, §3

CEM/dCK- [10] = experiment: as above; type: cell-based; settings: for IC50: Homo sapiens, CCRF-CEM, read-out: IC50 in μM (3H-TdR incorporation at 72 hr) CEM/dCK- 24 h, CCRF-CEM deoxycytidine kinase-deficient, 24 h drug exposure, 72 hr assay; for Factor* (Resistance Factor = Ratio of dCK- on Wild-type CCRF-CEM): ratio of IC50 CEM/dCK- to IC50 CCRF-CEM
Experimental: as §2, §3

[11] = Homo sapiens, MCF7, read-out: IC50 MCF-7 24 h, MTT at 72 hr, 24 h exposure, single experiment
[12] = Homo sapiens, SF-268, read-out: IC50 SF-268 24 h, MTT at 72 hr, 24 h exposure, single experiment
[13] = Homo sapiens, CCRF-CEM, read-out: IC50 CCRF-CEM 24 h, MMT or WST-1 at 72 hr, 24 h exposure, single experiment
[14] = CEM/dCK- versus CCRF-CEM, single experiment
[15] = read-out: IC50 CEM/dCK- 24 h, MMT or WST-1 at 72 hr, 24 h exposure, single experiment
[16] = read-out: IC50 MCF-7 24 h, MTT at 72 hr, 24 h exposure, single experiment
[17] = read-out: IC50 SF-268 24 h, MTT at 72 hr, 24 h exposure, single experiment

SMILES	IC50 (MCF-7 [2]; [11]) [nM]	IC50 (CCRF-CEM [4]; [13]) [nM]	IC50 (MCF-7 [2]; [16])	IC50 (CCRF-CEM [4]; read-out: IC50 CCRF-CEM 24 h, MMT or WST-1 at 72 hr, 24 h exposure, single experiment) [nM]	IC50 (H-460 [6]) [µM]	IC50 (MCF-7 [7]) [µM]	IC50 (SF-268 [8]) [µM]	IC50 (CCRF-CEM [9]; Homo sapiens, CCRF-CEM) [nM]	IC50 (CEM/dCK- [10]) [µM]	IC50 (CCRF-CEM [9]) [nM]	IC50 (H-460 [1]) [nM]	IC50 (SF-268 [3]; [12]) [µM]	Resistance Factor* (CEM/dCK- [5]; [14])	IC50 (CEM/dCK- [5]; [15]) [µM]	IC50 (CEM/dCK- [5]; read-out: IC50 CEM/dCK- 24 h; MMT or WST-1 at 72 hr, 24 h exposure, single experiment) [µM]	Factor* (Resistance Factor = Ratio of dCK- on Wild-type CCRF-CEM) (CEM/dCK- [10])	IC50 (SF-268 [3]; [17])
CC(C)C(C(=O)OC[C@H]1OC[C@@H](n2ccc(N)nc2=O)O1)c1ccccc1 (mixture of isomers) [Compound 262, 3-METHYL-2-PHENYL- BUTYRIC ACID 4-(4- AMINO-2-OXO-2H- PYRIMIDIN-1-YL)- [1,3]DIOXOLAN-2- YLMETHYL ESTER]	16000	880	–	–	–	–	–	–	–	–	900	> 100	>114	> 100	–	–	–
COc1ccc(C(OC[C@H]2OC[C@@H](n3ccc(N)nc3=O)O2)(c2ccc(OC)cc2)c2ccc(OC)cc2)cc1 [Compound 185, 4-AMINO-1-{2-[TRIS-(4- METHOXY-PHENYL)- METHOXYMETHYL]- [1,3]DIOXOLAN-4-YL}-1H- PYRIMIDIN-2-ONE]	1400	–	2300 nM	180	0.059	0.064	0.054	66	17	–	–	–	67	–	12	258	–
Nc1ccn([C@@H]2CO[C@H](COC(=O)C3(c4ccccc4)CC3)O2)c(=O)n1 [Compound 223, 1-PHENYL- CYCLOPROPANECARBOXYLIC ACID 4-(4-AMINO-2-OXO- 2H-PYRIMIDIN-1-YL)- [1,3]DIOXOLAN-2-YL METHYL ESTER]	1700	–	2100 nM and 1400 nM	–	0.035	0.15	0.25	62	> 100	–	–	–	–	> 100	–	>1613	–

Now from value to molecule, other results behind:

IC50 (MCF-7 [2]; [11]) [nM]	IC50 (CCRF-CEM [4]; [13]) [nM]	IC50 (MCF-7 [2]; [16])	IC50 (CCRF-CEM [4]; read-out: IC50 CCRF-CEM 24 h, MMT or WST-1 at 72 hr, 24 h exposure, single experiment) [nM]	IC50 (H-460 [6]) [µM]	IC50 (MCF-7 [7]) [µM]	IC50 (SF-268 [8]) [µM]	IC50 (CCRF-CEM [9]; Homo sapiens, CCRF-CEM) [nM]	IC50 (CEM/dCK- [10]) [µM]	IC50 (CCRF-CEM [9]) [nM]	SMILES	IC50 (H-460 [1]) [nM]	IC50 (SF-268 [3]; [12]) [µM]	Resistance Factor* (CEM/dCK- [5]; [14])	IC50 (CEM/dCK- [5]; [15]) [µM]	IC50 (CEM/dCK- [5]; read-out: IC50 CEM/dCK- 24 h; MMT or WST-1 at 72 hr, 24 h exposure, single experiment) [µM]	Factor* (Resistance Factor = Ratio of dCK- on Wild-type CCRF-CEM) (CEM/dCK- [10])	IC50 (SF-268 [3]; [17])
250	24	–	–	–	–	–	–	–	–	CCCCC(C)(C)C(=O)OC[C@H]1OC[C@@H](n2ccc(N)nc2=O)O1.Cl (stereo in doubt) [Compound 107, 2,2-DIMETHYLHEXANOIC ACID 4-(4-AMINO-2-OXO- 2H-PYRIMIDIN-1-YL)-1,3- DIOXOLAN-2-YLMETHYL ESTER HYDROCHLORIDE]	270	3.4	2.042	49	–	–	–
–	–	–	–	0.0026	0.005	0.26	–	> 100	–	CCCCC[C@]12CC[C@](C(=O)Nc3ccn([C@@H]4CO[C@H](CO)O4)c(=O)n3)(CC1)CC2 [Compound 210, 4-Pentyl-Bicyclo[2.2.2]Octane-1-Carboxylic Acid [1-(2-Hydroxymethyl-[1,3]Dioxolan-4-Yl)-2-Oxo-1,2-Dihydro-Pyrimidin-4-Yl]-Amide]	–	≥ 100	–	–	–	–	> 100 µM and 51 µM
–	–	–	–	–	–	–	0.027	–	0.053	CCCCC[C@]12CC[C@](C(=O)OC[C@H]3OC[C@@H](n4ccc(N)nc4=O)O3)(CC1)CC2 [Compound 211, 4-PENTYL- BICYCLO[2.2.2]OCTANE-1- CARBOXYLIC ACID 4-(4- AMINO-2-OXO-2H- PYRIMIDIN-1-YL)- [1,3]DIOXOLAN-2-YL METHYL ESTER]	–	–	–	–	–	–	0.034 µM
